Here are results for 4 molecules from ChEMBL document CHEMBL3351358, “LPM7 Inhibitors May Potentially Treat Autoimmune Diseases” (ACS Med Chem Lett, 2014).

Experiment [1] in a line: Inhibition of LPM7 beta 1c subunit in human Ramos cells using rh110-(Ile)2 substrate by fluorogenic assay. It counts as cell-based.
Experiment [2] can be described thus: Inhibition of LPM7 in CpG type A-stimulated human PBMCs by CXCL10/IP10 detection based PBMC IP-10 assay.
The nature of experiment [3]: Inhibition of LPM7 beta 5i subunit in human Ramos cells using ac-(anw)2-r110 substrate by fluorogenic assay. Format: cell-based.
Experiment [4] is described as follows: Inhibition of LPM7 beta 5c subunit in human Ramos cells using rh110-(wla)2 substrate by fluorogenic assay. Format: cell-based.
The nature of experiment [5]: Inhibition of LPM7 beta 1i subunit in human Ramos cells using rh110-(pal)2 substrate by fluorogenic assay. Format: cell-based.

As a reminder, the IC50 is the midpoint of a concentration-inhibition curve. By EC50 is commonly meant the midpoint of the concentration-response curve.

With `CCCC[C@H](NC(=O)[C@H](Cc1c[nH]c2ccccc12)NC(=O)[C@H](C)NC(=O)C1=C(C)c2ccccc2C1)C(=O)C(=O)NCc1ccccc1`, the IC50 was determined as 3340 nM in experiment [1], 18 nM in experiment [3], 560 nM in experiment [4] and 142 nM in experiment [5]. This molecule gave a 50% effective concentration (EC50) in experiment [2] of 1220 nM.
As for `C[C@H](NC(=O)OCc1ccccc1)C(=O)N[C@@H](CC(F)(F)F)C(=O)N[C@@H](Cc1ccccc1)C(=O)C(=O)NCc1ccccc1`, the half-inhibitory concentration (IC50) is 20000 nM in experiment [1], 524 nM in experiment [3], 6160 nM in experiment [4] and 2730 nM in experiment [5]. Further, the EC50 in experiment [2] worked out at 5030 nM.
In the case of `C[C@H](NC(=O)C1Cc2ccccc2C1)C(=O)N[C@@H](CCc1ccccc1)C(=O)N[C@@H](Cc1ccccc1)C(=O)C(=O)NCc1ccccc1`, the half-inhibitory concentration (IC50) was found to be 18100 nM in experiment [1], 4 nM in experiment [3], 14 nM in experiment [4] and 968 nM in experiment [5]. The EC50 in experiment [2] was determined as 379 nM.
On the same counts, the results for `COc1ccc(C[C@H](NC(=O)[C@H](C)NC(=O)C2Cc3ccccc3C2)C(=O)N[C@@H](Cc2ccccc2)C(=O)C(=O)NCc2ccccc2)cc1` are 20000 nM, 3 nM, 55 nM, 234 nM and 695 nM.
